Source: patent US20020010125A1, “Assay for agents that induce chemokinesis” (priority 2000, published 2002)
“Also recorded” adds a separate entry of the source.

Tests used:
[1] = test system: chronic lymphocytic leukemia cells; test: Chemokinesis: migration of chronic lymphocytic leukemia cells through a membrane, no etodolac or chemokine in lower well; assay type: cell-based, human; conditions: overnight incubation at 200 μmol concentration, versus cells without etodolac; FIG. 1
Procedure: Cell migration was measured in a 24-well modified Boyden chamber (Transwell, Corning-Costar, N.Y.). The recombinant human IP-10 chemokine (R&D Systems, McKinley Place, Nebr.) was diluted in RPMI-1640 medium at 200 ng/ml, and used to evaluate the chemotactic properties of lymphocytes from B-CLL patients. Polycarbonate membranes with pore size of 3 μm were used. A total of […] of chemokines or control medium was added to the bottom wells, and […] of 2 to 5.0×10^6 cells/ml cells resuspended in RPMI-1640 were added to the top wells. […] The membranes were then removed, and the cells present on the bottom well were quantified by flow cytometry. For cell quantification, a fixed acquisition time of 30 seconds was used per sample, and beads were run during each experiment to ensure a reproducible acquisition. All assays were performed in triplicate. B-Chronic lymphocytic leukemia (B-CLL) cells were pre-incubated in the presence of various concentrations of etodolac for 16 hours, prior to loading in the upper part of a modified Boyden chamber with pore size of 3 μm. The lower reservoir contained either medium alone, or the CXCR3-binding chemokine IFN-inducible protein 10 (IP-10, 200 ng/ml). After 2 hours of incubation, the cells that traveled through the polycarbonate membrane were enumerated by flow cytometry. […] Control cells were incubated in the same medium without etodolac. The cells were then added to the upper wells of chemotaxis chambers divided by a 5 to 8 micron membrane. No etodolac was present in the lower portion of each well. FIG. 1 provides a graph of the number of chronic lymphocytic leukemia cells crossing through the membranes into the lower well.

[2] = test system: peripheral blood lymphocytes; test: Chemokinesis: migration of peripheral blood lymphocytes through a membrane, no etodolac in lower well; assay type: cell-based, human; conditions: overnight incubation at 250 μM, versus cells without etodolac; FIG. 2
Procedure: Cell migration was measured in a 24-well modified Boyden chamber (Transwell, Corning-Costar, N.Y.). The recombinant human IP-10 chemokine (R&D Systems, McKinley Place, Nebr.) was diluted in RPMI-1640 medium at 200 ng/ml, and used to evaluate the chemotactic properties of lymphocytes from B-CLL patients. Polycarbonate membranes with pore size of 3 μm were used. A total of […] of chemokines or control medium was added to the bottom wells, and […] of 2 to 5.0×10^6 cells/ml cells resuspended in RPMI-1640 were added to the top wells. […] The membranes were then removed, and the cells present on the bottom well were quantified by flow cytometry. For cell quantification, a fixed acquisition time of 30 seconds was used per sample, and beads were run during each experiment to ensure a reproducible acquisition. All assays were performed in triplicate. Peripheral blood lymphocytes were incubated overnight in medium containing a racemic mixture of etodolac, the R-enantiomer of etodolac or the S-enantiomer of etodolac at 250 μM concentration. Control cells were incubated in the same medium without etodolac. The cells were then added to the upper wells of chemotaxis chambers divided by a 5 to 8 micron membrane. No etodolac was present in the lower portion of each well. FIG. 2 provides a graph of the number of peripheral blood lymphocytes crossing through the membranes into the lower well.

B-CLL cells [3] = conditions: for chemotactic response of B-CLL cells to IP-10: overnight incubation at 12.5 μM to 500 μM, B-CLL patients n=4, FIG. 3
[4] = test system: peripheral blood lymphocytes; conditions: for number of peripheral blood lymphocytes migrating through the membrane to IP-10: overnight incubation at 0 μM to 500 μM, FIG. 4
[5] = test system: Chronic lymphocytic leukemia (B-CLL) cells; test: B-CLL colony morphology, aggregation and viability by light microscopy; assay type: cell-based, human; conditions: 24 hours
Procedure: Chronic lymphocytic leukemia (B-CLL) cells were incubated for 24 hr in medium containing the R-enantiomer of etodolac at 0.0 μM, 100 μM and 250 μM. concentrations. The cell morphology was observed under light microscopy. Control cells incubated without etodolac grew in large, flat colonies (FIG. 6A). However, after incubation for 24 hours with either 100 μM or 250 μM.

[6] = test system: Colon cancer cells (HCT-116); test: Actin filament staining (phalloidin) and cell shape in colon cancer cells; assay type: cell-based; conditions: 500 μM, 5 hours; FIG. 7B
Procedure: Colon cancer cells (HCT-116) were incubated for 5 hours with either no etodolac (control cells) or 500 μM. R-etodolac (test cells). The cells were then fixed and the intracellular actin filaments were stained with phalloidan conjugated to a fluorogenic dye (Alexa-green). The control cells (FIG. 7A) had actin filaments arranged in rigid structures (stress fibers) that confer the “stretched” shape often seen in normal cells.

[7] = test system: peripheral blood leukocytes; test: Peripheral blood leukocyte counts in normal mice after etodolac by gastric lavage; assay type: in vivo; conditions: blood at 4 hr, 24 hr, 158 hr and 14 days, FIG. 5
Procedure: Normal mice were given 25 mg/kg etodolac or 100 mg/kg etodolac by gastric lavage. Control mice received no etodolac. Blood was drawn from each mouse at 4 hr, 24 hr, 158 hr and 14 days after etodolac administration and peripheral blood leukocyte counts were done.

B-CLL cells [8] = test: Ex vivo viability (erythrosin B) of B-CLL cells isolated from patients before and after etodolac challenge; assay type: in vivo, human; conditions: for % Increased cell death: after versus before etodolac
From the text: Written informed consent was obtained to procure peripheral blood from all patients and with normal healthy volunteers. Patients had to have B-CLL according to National Cancer Institute (NCI) criteria of any Rai stage. Criteria for requiring therapy were as follows: disease-related symptoms, anemia and/or thrombocytopenia, bulky lymphadenopathy, and/or clinically relevant splenomegaly. Mononuclear cells were isolated by gradient centrifugation through Ficoll-Paque. […] At the indicated times, viability assays were performed by erythrosin B dye exclusion. To determine if etodolac could reduce B-CLL survival in vivo, six B-CLL patients were enrolled in a first step challenge assay for etodolac sensitivity. Each patient received one 400 mg etodolac tablet, and a second tablet 12 hours later. B-CLL cells were isolated just before the first tablet, and 12 hours after the second. B-CLL cells recovered from patients were then cultured with 20% autologous plasma and apoptosis rates were measured, either before or after etodolac treatment. […] The five etodolac-sensitive patients were then enrolled in a second-step clinical trial in which they took etodolac for one month (400 mg bid). […] After 72 hour of incubation, viability assays were performed by erythrosin B staining. Numbers indicate the % of viable cells.

[9] = test system: circulating lymphocyte counts; test: Clinical trial of etodolac in B-CLL patients: circulating lymphocyte counts, lymphadenopathy; assay type: in vivo, human
Procedure: To determine if etodolac could reduce B-CLL survival in vivo, six B-CLL patients were enrolled in a first step challenge assay for etodolac sensitivity. Each patient received one 400 mg etodolac tablet, and a second tablet 12 hours later. B-CLL cells were isolated just before the first tablet, and 12 hours after the second. B-CLL cells recovered from patients were then cultured with 20% autologous plasma and apoptosis rates were measured, either before or after etodolac treatment. […] The five etodolac-sensitive patients were then enrolled in a second-step clinical trial in which they took etodolac for one month (400 mg bid).

CCc1cccc2c3c([nH]c12)[C@](CC)(CC(=O)O)OCC3 [S-etodolac]
number of chronic lymphocytic leukemia cells crossing through the membranes into the lower well [1]: more cells migrated through the membrane | number of peripheral blood lymphocytes crossing through the membranes into the lower well [2]: did not induce substantial chemokinesis | chemotactic response of B-CLL cells to IP-10 (B-CLL cells [3]): enhanced B-CLL chemotaxis | number of peripheral blood lymphocytes migrating through the membrane to IP-10 [4]: less cell migration than did the racemic mixture

CCc1cccc2c3c([nH]c12)[C@@](CC)(CC(=O)O)OCC3 [R-etodolac]
number of chronic lymphocytic leukemia cells crossing through the membranes into the lower well [1]: more cells migrated through the membrane | number of peripheral blood lymphocytes crossing through the membranes into the lower well [2]: did not induce substantial chemokinesis | total number of B-CLL cells or their viability ([5]; 100 μM or 250 μM): No effect | B-CLL cell movement and colony morphology ([5]; 100 μM, FIG. 6B): the cells migrated toward each other, the diameter of the colonies was reduced, and multiple layers of cells were present in the colonies | B-CLL cell movement and colony morphology ([5]; 250 μM, FIG. 6C): the cells migrated toward each other and the diameter of the colonies was reduced; also recorded: the cells migrated even more toward each other, the diameter of the colonies was even further reduced and even more layers of cells were present in the colonies | actin filaments and cell shape of HCT-116 cells [6]: no conventional stress fibers are observed and the cells assume a rounded shape | chemotactic response of B-CLL cells to IP-10 (B-CLL cells [3]): enhanced B-CLL chemotaxis | number of peripheral blood lymphocytes migrating through the membrane to IP-10 [4]: less cell migration than did the racemic mixture

CCc1cccc2c3c([nH]c12)C(CC)(CC(=O)O)OCC3 (racemic) [etodolac]
number of chronic lymphocytic leukemia cells crossing through the membranes into the lower well [1]: more cells migrated through the membrane | number of peripheral blood lymphocytes crossing through the membranes into the lower well [2]: more cells migrated through the membrane | number of peripheral blood leukocytes ([7]; 25 mg/kg by gastric lavage): reduced | number of peripheral blood leukocytes ([7]; 100 mg/kg by gastric lavage): reduced | % Increased cell death (B-CLL cells [8]; patient #1): 13% | % Increased cell death (B-CLL cells [8]; patient #2): 57% | % Increased cell death (B-CLL cells [8]; patient #3): 69% | % Increased cell death (B-CLL cells [8]; patient #4): 0% | % Increased cell death (B-CLL cells [8]; patient #5): 34% | % Increased cell death (B-CLL cells [8]; patient #6): 41% | patients whose cells displayed more ex vivo spontaneous apoptosis after in vivo etodolac challenge than before (B-CLL cells [8]; six B-CLL patients, two 400 mg tablets 12 hours apart): 5 out of 6 | changes in lymphadenopathy ([9]; B-CLL patients on etodolac therapy): did not have clinically obvious changes in lymphadenopathy | B-CLL counts when etodolac treatment was interrupted ([9]; after one month of 400 mg bid): rebounded to pre-treatment levels | drop of circulating lymphocyte counts ([9]; two retreated B-CLL patients, over one month, results not shown): ~50% | expression of the CXCR receptor, as assessed by antibody staining (B-CLL cells [3]; B-CLL cells, data not shown): not due to increased expression of the CXCR receptor | concentration at which chemotaxis of B-CLL cells decreased, due to a loss of cell viability (B-CLL cells [3]; human, 16 h): ≥ 500 µM | chemotactic response of B-CLL cells to IP-10 (B-CLL cells [3]): increased the chemotactic response | etodolac concentration up to which the number of migrating peripheral blood lymphocytes increased ([4]; IP-10 in lower well): 100 µM | concentration at which chemotaxis of peripheral blood lymphocytes decreased, due to a loss of cell viability ([4]; human): ≥ 250 µM | number of peripheral blood lymphocytes migrating through the membrane to IP-10 [4]: increased with etodolac concentration
